How the values were obtained:
Format in all cases: functional
[1] = test system: KM12; assay: Growth inhibition of human KM12 cells assessed as cell growth at 10 uM by sulforhodamine B assay; conditions: read-out: Activity
[2] = test system: HOP-92; assay: Growth inhibition of human HOP92 cells assessed as cell growth at 10 uM by sulforhodamine B assay; conditions: read-out: Activity
[3] = test system: UO-31; assay: Growth inhibition of human UO31 cells assessed as growth inhibition at 10 uM by sulforhodamine B assay; conditions: read-out: GI
[4] = test system: DU-145; assay: Growth inhibition of human DU145 cells assessed as growth inhibition at 10 uM by sulforhodamine B assay; conditions: read-out: GI
[5] = test system: HCT-116; assay: Growth inhibition of human HCT116 cells assessed as cell growth at 10 uM by sulforhodamine B assay; conditions: read-out: Activity
[6] = test system: LOX IMVI; assay: Growth inhibition of human LOXIMVI cells assessed as cell growth at 10 uM by sulforhodamine B assay; conditions: read-out: Activity
[7] = test system: SK-MEL-5; assay: Growth inhibition of human SK-MEL-5 cells assessed as cell growth at 10 uM by sulforhodamine B assay; conditions: read-out: Activity
[8] = test system: MDA-MB-468; assay: Growth inhibition of human MDA-MB-468 cells assessed as cell growth at 10 uM by sulforhodamine B assay; conditions: read-out: Activity
[9] = test system: K562; assay: Growth inhibition of human K562 cells assessed as growth inhibition at 10 uM by sulforhodamine B assay; conditions: read-out: GI
[10] = test system: IGROV-1; assay: Growth inhibition of human IGROV1 cells assessed as growth inhibition at 10 uM by sulforhodamine B assay; conditions: read-out: GI
[11] = test system: MOLT-4; assay: Growth inhibition of human MOLT4 cells assessed as cell growth at 10 uM by sulforhodamine B assay; conditions: read-out: Activity
[12] = test system: HL-60(TB); assay: Growth inhibition of human HL-60(TB) cells assessed as cell growth at 10 uM by sulforhodamine B assay; conditions: read-out: Activity
[13] = Growth inhibition of human Hs 578T cells assessed as cell growth at 10 uM by sulforhodamine B assay; conditions: read-out: Activity
[14] = test system: Malme-3M; assay: Growth inhibition of human MALME-3M cells assessed as growth inhibition at 10 uM by sulforhodamine B assay; conditions: read-out: GI
[15] = test system: SN12C; assay: Growth inhibition of human SN12C cells assessed as cell growth at 10 uM by sulforhodamine B assay; conditions: read-out: Activity
[16] = test system: MDA-MB-435; assay: Growth inhibition of human MDA-MB-435 cells assessed as growth inhibition at 10 uM by sulforhodamine B assay; conditions: read-out: GI
[17] = test system: Malme-3M; assay: Growth inhibition of human MALME-3M cells assessed as cell growth at 10 uM by sulforhodamine B assay; conditions: read-out: Activity
[18] = test system: SW-620; assay: Growth inhibition of human SW620 cells assessed as growth inhibition at 10 uM by sulforhodamine B assay; conditions: read-out: GI
[19] = test system: UACC-62; assay: Growth inhibition of human UACC62 cells assessed as growth inhibition at 10 uM by sulforhodamine B assay; conditions: read-out: GI
[20] = test system: SR; assay: Growth inhibition of human SR cells assessed as growth inhibition at 10 uM by sulforhodamine B assay; conditions: read-out: GI
[21] = test system: HOP-92; assay: Growth inhibition of human HOP92 cells assessed as growth inhibition at 10 uM by sulforhodamine B assay; conditions: read-out: GI
[22] = test system: M14; assay: Growth inhibition of human M14 cells assessed as cell growth at 10 uM by sulforhodamine B assay; conditions: read-out: Activity
[23] = test system: UACC-257; assay: Growth inhibition of human UACC257 cells assessed as growth inhibition at 10 uM by sulforhodamine B assay; conditions: read-out: GI
[24] = test system: SNB-75; assay: Growth inhibition of human SNB75 cells assessed as cell growth at 10 uM by sulforhodamine B assay; conditions: read-out: Activity
[25] = test system: CCRF-CEM; assay: Growth inhibition of human CCRF-CEM cells assessed as growth inhibition at 10 uM by sulforhodamine B assay; conditions: read-out: GI
[26] = test system: IGROV-1; assay: Growth inhibition of human IGROV1 cells assessed as cell growth at 10 uM by sulforhodamine B assay; conditions: read-out: Activity
[27] = test system: NCI-H322M; assay: Growth inhibition of human NCI-H322M cells assessed as cell growth at 10 uM by sulforhodamine B assay; conditions: read-out: Activity
[28] = test system: SNB-75; assay: Growth inhibition of human SNB75 cells assessed as growth inhibition at 10 uM by sulforhodamine B assay; conditions: read-out: GI
[29] = test system: COLO 205; assay: Growth inhibition of human COLO205 cells assessed as growth inhibition at 10 uM by sulforhodamine B assay; conditions: read-out: GI
[30] = test system: ACHN; assay: Growth inhibition of human ACHN cells assessed as cell growth at 10 uM by sulforhodamine B assay; conditions: read-out: Activity
[31] = test system: MCF7; assay: Growth inhibition of human MCF7 cells assessed as growth inhibition at 10 uM by sulforhodamine B assay; conditions: read-out: GI
[32] = test system: RXF 393; assay: Growth inhibition of human RXF393 cells assessed as growth inhibition at 10 uM by sulforhodamine B assay; conditions: read-out: GI
[33] = test system: NCI-H23; assay: Growth inhibition of human NCI-H23 cells assessed as cell growth at 10 uM by sulforhodamine B assay; conditions: read-out: Activity
[34] = test system: SF-539; assay: Growth inhibition of human SF539 cells assessed as growth inhibition at 10 uM by sulforhodamine B assay; conditions: read-out: GI
[35] = test system: OVCAR-4; assay: Growth inhibition of human OVCAR4 cells assessed as cell growth at 10 uM by sulforhodamine B assay; conditions: read-out: Activity
[36] = test system: RXF 393; assay: Growth inhibition of human RXF393 cells assessed as cell growth at 10 uM by sulforhodamine B assay; conditions: read-out: Activity
[37] = test system: NCI-H460; assay: Growth inhibition of human NCI-H460 cells assessed as cell growth at 10 uM by sulforhodamine B assay; conditions: read-out: Activity
[38] = test system: T47D; assay: Growth inhibition of human T47D cells assessed as cell growth at 10 uM by sulforhodamine B assay; conditions: read-out: Activity
[39] = Growth inhibition of human EKVX cells assessed as growth inhibition at 10 uM by sulforhodamine B assay; conditions: read-out: GI
[40] = test system: MDA-MB-231; assay: Growth inhibition of human MDA-MB-231 cells assessed as growth inhibition at 10 uM by sulforhodamine B assay; conditions: read-out: GI
[41] = test system: SR; assay: Growth inhibition of human SR cells assessed as cell growth at 10 uM by sulforhodamine B assay; conditions: read-out: Activity
[42] = test system: SF-268; assay: Growth inhibition of human SF268 cells assessed as cell growth at 10 uM by sulforhodamine B assay; conditions: read-out: Activity
[43] = test system: U-251; assay: Growth inhibition of human U251 cells assessed as cell growth at 10 uM by sulforhodamine B assay; conditions: read-out: Activity
[44] = test system: BT-549; assay: Growth inhibition of human BT549 cells assessed as growth inhibition at 10 uM by sulforhodamine B assay; conditions: read-out: GI
[45] = test system: HL-60(TB); assay: Growth inhibition of human HL-60(TB) cells assessed as growth inhibition at 10 uM by sulforhodamine B assay; conditions: read-out: GI
[46] = test system: A549; assay: Growth inhibition of human A549/ATCC cells assessed as growth inhibition at 10 uM by sulforhodamine B assay; conditions: read-out: GI
[47] = test system: HOP-62; assay: Growth inhibition of human HOP62 cells assessed as growth inhibition at 10 uM by sulforhodamine B assay; conditions: read-out: GI
[48] = test system: UACC-257; assay: Growth inhibition of human UACC257 cells assessed as cell growth at 10 uM by sulforhodamine B assay; conditions: read-out: Activity
[49] = test system: BT-549; assay: Growth inhibition of human BT549 cells assessed as cell growth at 10 uM by sulforhodamine B assay; conditions: read-out: Activity

CC1(C)C[C@@H](O)[C@]2(C(=O)O)CC[C@]3(C)C(=CC[C@@H]4[C@@]5(C)CC[C@H](O)C(C)(C)[C@@H]5CC[C@]43C)[C@@H]2C1
growth at 10 µM [1]: 90.1% | growth at 10 µM [2]: 103% | inhibition of growth at 10 µM [3]: 13.9% | inhibition of growth at 10 µM [4]: < 10% | growth at 10 µM [5]: 82.7% | growth at 10 µM [6]: 89% | growth at 10 µM [7]: 98.7% | growth at 10 µM [8]: 111% | inhibition of growth at 10 µM [9]: < 10% | inhibition of growth at 10 µM [10]: < 10% | growth at 10 µM [11]: 78.3% | growth at 10 µM [12]: 82% | growth at 10 µM [13]: 102% | inhibition of growth at 10 µM [14]: < 10% | growth at 10 µM [15]: 89.5% | inhibition of growth at 10 µM [16]: < 10% | growth at 10 µM [17]: 102% | inhibition of growth at 10 µM [18]: < 10% | inhibition of growth at 10 µM [19]: 11.8% | inhibition of growth at 10 µM [20]: 22% | inhibition of growth at 10 µM [21]: < 10% | growth at 10 µM [22]: 93.6% | inhibition of growth at 10 µM [23]: < 10% | growth at 10 µM [24]: 97.7% | inhibition of growth at 10 µM [25]: 11.6% | growth at 10 µM [26]: 97.6% | growth at 10 µM [27]: 99% | inhibition of growth at 10 µM [28]: < 10% | inhibition of growth at 10 µM [29]: < 10% | growth at 10 µM [30]: 102% | inhibition of growth at 10 µM [31]: < 10% | inhibition of growth at 10 µM [32]: < 10% | growth at 10 µM [33]: 102% | inhibition of growth at 10 µM [34]: < 10% | growth at 10 µM [35]: 96% | growth at 10 µM [36]: 112% | growth at 10 µM [37]: 101% | growth at 10 µM [38]: 93% | inhibition of growth at 10 µM [39]: < 10% | inhibition of growth at 10 µM [40]: < 10% | growth at 10 µM [41]: 78% | growth at 10 µM [42]: 102% | growth at 10 µM [43]: 91.8% | inhibition of growth at 10 µM [44]: < 10% | inhibition of growth at 10 µM [45]: 18% | inhibition of growth at 10 µM [46]: 12.4% | inhibition of growth at 10 µM [47]: < 10% | growth at 10 µM [48]: 107% | growth at 10 µM [49]: 90.3%

CC1(C)C[C@@H](O)[C@]2(C(=O)O)CC[C@]3(C)C(=CC[C@@H]4[C@@]5(C)CCC(=O)C(C)(C)[C@@H]5CC[C@]43C)[C@@H]2C1
growth at 10 µM [1]: 87.7% | growth at 10 µM [2]: 75.4% | inhibition of growth at 10 µM [3]: 13.9% | inhibition of growth at 10 µM [4]: < 10% | growth at 10 µM [5]: 78.8% | growth at 10 µM [6]: 93.2% | growth at 10 µM [7]: 87.8% | growth at 10 µM [8]: 96.2% | inhibition of growth at 10 µM [9]: 23.2% | inhibition of growth at 10 µM [10]: < 10% | growth at 10 µM [11]: 78.7% | growth at 10 µM [12]: 75.2% | growth at 10 µM [13]: 99.3% | inhibition of growth at 10 µM [14]: 12.9% | growth at 10 µM [15]: 83.3% | inhibition of growth at 10 µM [16]: < 10% | growth at 10 µM [17]: 87.1% | inhibition of growth at 10 µM [18]: < 10% | inhibition of growth at 10 µM [19]: 19.5% | inhibition of growth at 10 µM [20]: 16.3% | inhibition of growth at 10 µM [21]: 24.6% | growth at 10 µM [22]: 93.4% | inhibition of growth at 10 µM [23]: < 10% | growth at 10 µM [24]: 101% | inhibition of growth at 10 µM [25]: 12.5% | growth at 10 µM [26]: 92.3% | growth at 10 µM [27]: 97.5% | inhibition of growth at 10 µM [28]: < 10% | inhibition of growth at 10 µM [29]: < 10% | growth at 10 µM [30]: 91.8% | inhibition of growth at 10 µM [31]: 18.6% | inhibition of growth at 10 µM [32]: < 10% | growth at 10 µM [33]: 92.3% | inhibition of growth at 10 µM [34]: < 10% | growth at 10 µM [35]: 85.9% | growth at 10 µM [36]: 112% | growth at 10 µM [37]: 94.7% | growth at 10 µM [38]: 80.8% | inhibition of growth at 10 µM [39]: < 10% | inhibition of growth at 10 µM [40]: < 10% | growth at 10 µM [41]: 83.7% | growth at 10 µM [42]: 106% | growth at 10 µM [43]: 89.2% | inhibition of growth at 10 µM [44]: 10.1% | inhibition of growth at 10 µM [45]: 24.8% | inhibition of growth at 10 µM [46]: 21% | inhibition of growth at 10 µM [47]: 11.3% | growth at 10 µM [48]: 91.2% | growth at 10 µM [49]: 89.9%

Source: ChEMBL document CHEMBL2413072, “Synthesis and in vitro anticancer studies of novel C-2 arylidene congeners of lantadenes” (2013)
